# Assay results published in patent US9012433B2, “Substituted tetracycline compounds” (Paratek Pharmaceuticals, Inc., priority 2006, dated 2015).
# Like-named read-outs stand apart in the source and are kept apart here.
# Legend:
# Assay type in all cases: cell-based
# [1] = test system: B. thetaiotaomicron ATCC 29741; test: Antibacterial MIC, CLSI broth microdilution; details: Bacteroides thetaiotaomicron
# Experimental: (§1) Grain (−) and gram (+) antibacterial minimum inhibitory concentration (MIC) values (μg/mL) were obtained using CLSI methodology for anti-bacterial susceptibility testing. On each day of testing, serial dilutions of compounds were prepared in microdilution plates using a Tecan robotic workstation. Mueller Hinton broth cultures of representative sensitive and resistant gram negative strains were grown or adjusted to match the turbidity of a 0.5 McFarland standard. 1:200 dilutions were made in an appropriate broth (cation supplemented Mueller Hinton broth) to allow a final inoculum of 1×10^5 cfu. Plates were incubated at 35° C. in ambient air for 18-24 hours, were read spectrophotometrically and checked manually for evidence of bacterial growth. The lowest dilution of compound that inhibited growth was recorded as the MIC. Lysed horse blood was used to supplement broth for testing S. pneumoniae. The MIC's for each compound were assessed against S. aureus, S. pneumoniae, P. acnes, E. coli and B. theta.
# E. coli ATCC 25922 = test: Antibacterial MIC, CLSI broth microdilution; details: Escherichia coli, ATCC25922; 35° C., 18-24 hours
# Experimental: as §1
# E. coli MG 1655 = test: Antibacterial MIC, CLSI broth microdilution; details: Escherichia coli, MG1655; 35° C., 18-24 hours
# Experimental: as §1
# P. acnes ATCC 11827 = test: Antibacterial MIC, CLSI broth microdilution; details: Cutibacterium acnes, ATCC11827; 35° C., 18-24 hours
# Experimental: as §1
# P. acnes ATCC 6919 = test: Antibacterial MIC, CLSI broth microdilution; details: Cutibacterium acnes, ATCC6919; 35° C., 18-24 hours
# Experimental: as §1
# S. aureus RN450 = test: Antibacterial MIC, CLSI broth microdilution; details: Staphylococcus aureus, RN450; 35° C., 18-24 hours
# Experimental: as §1
# [2] = test system: S. pneumoniae 157E - Strep; test: Antibacterial MIC, CLSI broth microdilution; details: Streptococcus pneumoniae, 157ESTREP; 35° C., 18-24 hours; lysed horse blood
# Experimental: as §1
# in vitro = test: in vitro
# Experimental: Mammalian cell cytotoxicity was assessed to evaluate potential in vivo risks associated with the tetracycline compounds of the invention. A soluble, non-toxic redox dye (“Resazurin”; Alamar Blue) was used to assess a tetracycline compound's effect on cellular metabolism. At the onset of the experiment, cultures of mammalian COS-1 or CHO cells were washed, trypsinized, and harvested. […] On the next day, serial dilutions of test drug were prepared under sterile conditions and transferred to cell plates. Plates were then incubated under the above conditions for 24 hours. Following the incubation period, the media/drug was aspirated, and 50 μL of resazurin was added. Plates were then incubated under the above conditions for 2 hours and then in the dark at room temperature for an additional 30 minutes. Fluorescence measurements were taken (excitation 535 nm, emission 590 nm) and toxic effects in treated versus control cells were compared based on the degree of fluorescence in each well.
# [3] = ATCC29741, 35° C., 18-24 hours, read-out: MIC B. thetaiotaomicron ATCC 29741
Compound,"MIC [1, 3]",MIC (E. coli ATCC 25922),MIC (E. coli MG 1655),MIC (P. acnes ATCC 11827),MIC (P. acnes ATCC 6919),MIC (S. aureus RN450),MIC [2],IC50 at 24 h (in vitro; African green monkey),IC50 at 24 h (in vitro; Chinese hamster),"MIC ([1]; ATCC29741, read-out: MIC B. thetaiotaomicron ATCC 29741)"
CN(C)[C@H]1C(O)=C(C(N)=O)C(=O)[C@@]2(O)C(O)=C3C(=O)c4c(O)ccc(CNOCC(F)(F)F)c4C[C@H]3C[C@@H]12 [EA],4 to 8 µg/mL,> 8 µg/mL,> 8 µg/mL,< 4 µg/mL,< 4 µg/mL,< 4 µg/mL,4 to 8 µg/mL,> 75 µg/mL,> 75 µg/mL,–
C=CCN(Cc1ccc(O)c2c1C[C@H]1C[C@H]3[C@H](N(C)C)C(O)=C(C(N)=O)C(=O)[C@@]3(O)C(O)=C1C2=O)C(=O)OC [F],4 to 8 µg/mL,> 8 µg/mL,> 8 µg/mL,< 4 µg/mL,< 4 µg/mL,< 4 µg/mL,< 4 µg/mL,< 35 µg/mL,< 35 µg/mL,–
C/C(=N\OC(C)(C)C)c1cc(N)c(O)c2c1C[C@H]1C[C@H]3[C@@H](N(C)C)C(O)=C(C(N)=O)C(=O)[C@@]3(O)C(O)=C1C2=O [R],4 to 8 µg/mL,> 8 µg/mL,> 8 µg/mL,< 4 µg/mL,< 4 µg/mL,< 4 µg/mL,< 4 µg/mL,< 35 µg/mL,< 35 µg/mL,–
CN(C)[C@H]1C(O)=C(C(N)=O)C(=O)[C@@]2(O)C(O)=C3C(=O)c4c(O)ccc(CNOCCF)c4C[C@H]3C[C@@H]12 [EB],4 to 8 µg/mL,> 8 µg/mL,> 8 µg/mL,< 4 µg/mL,< 4 µg/mL,< 4 µg/mL,4 to 8 µg/mL,–,–,–
CN(C)[C@@H]1C(O)=C(C(N)=O)C(=O)[C@@]2(O)C(O)=C3C(=O)c4cccc(-c5ncccn5)c4C[C@H]3C[C@@H]12 [S],> 8 µg/mL,> 8 µg/mL,> 8 µg/mL,4 to 8 µg/mL,4 to 8 µg/mL,< 4 µg/mL,< 4 µg/mL,> 75 µg/mL,> 75 µg/mL,–
CON(C)Cc1ccc2c(c1O)C(=O)C1=C(O)[C@]3(O)C(=O)C(C(N)=O)=C(O)[C@@H](N(C)C)[C@@H]3C[C@@H]1C2 [GL],–,> 8 µg/mL,> 8 µg/mL,4 to 8 µg/mL,4 to 8 µg/mL,4 to 8 µg/mL,4 to 8 µg/mL,35 to 75 µg/mL,35 to 75 µg/mL,4 to 8 µg/mL
CC1CCN(Cc2cccc3c2C[C@H]2C[C@H]4[C@@H](N(C)C)C(O)=C(C(N)=O)C(=O)[C@@]4(O)C(O)=C2C3=O)CC1 [G],> 8 µg/mL,4 to 8 µg/mL,> 8 µg/mL,4 to 8 µg/mL,4 to 8 µg/mL,< 4 µg/mL,< 4 µg/mL,> 75 µg/mL,> 75 µg/mL,–
CN(C)[C@H]1C(O)=C(C(N)=O)C(=O)[C@@]2(O)C(O)=C3C(=O)c4cccc(-c5ncccn5)c4C[C@H]3C[C@@H]12 [H],> 8 µg/mL,> 8 µg/mL,> 8 µg/mL,4 to 8 µg/mL,4 to 8 µg/mL,< 4 µg/mL,< 4 µg/mL,> 75 µg/mL,> 75 µg/mL,–
CCON(C)Cc1ccc(O)c2c1C[C@H]1C[C@H]3[C@H](N(C)C)C(O)=C(C(N)=O)C(=O)[C@@]3(O)C(O)=C1C2=O [AE],4 to 8 µg/mL,4 to 8 µg/mL,> 8 µg/mL,< 4 µg/mL,< 4 µg/mL,< 4 µg/mL,< 4 µg/mL,> 75 µg/mL,< 35 µg/mL,–
"CCNN(CC)Cc1ccc(O)c2c1C[C@H]1C[C@H]3[C@H](N(C)C)C(O)=C(C(N)=O)C(=O)[C@@]3(O)C(O)=C1C2=O [Z, (4S,4aS,5aR,12aS)-7-(N,N″-Diethyl-hydrazinomethyl)-4-dimethylamino-3,10,12,12a-tetrahydroxy-1,11-dioxo-1,4,4a,5,5a,6,11,12a-octahydro-naphthacene-2-carboxylic acid amide]",> 8 µg/mL,4 to 8 µg/mL,4 to 8 µg/mL,< 4 µg/mL,< 4 µg/mL,< 4 µg/mL,< 4 µg/mL,> 75 µg/mL,> 75 µg/mL,–
CN(C)[C@@H]1C(O)=C(C(N)=O)C(=O)[C@@]2(O)C(O)=C3C(=O)c4c(O)ccc(CN5OCCC5=N)c4C[C@H]3C[C@@H]12 [EC],–,> 8 µg/mL,> 8 µg/mL,–,–,< 4 µg/mL,< 4 µg/mL,–,–,–
"C/C(=N\OCC(F)(F)F)c1cc(N)c(O)c2c1C[C@H]1C[C@H]3[C@H](N(C)C)C(O)=C(C(N)=O)C(=O)[C@@]3(O)C(O)=C1C2=O [DT, (4S,4aS,5aR,12aS)-9-Amino-4-dimethylamino-3,10,12,12a-tetrahydroxy-1,1,1-dioxo-7-[1-(2,2,2-trifluoro-ethoxyimino)-ethyl]-1,4,4a,5,5a,6,11,12a-octahydro-naphthacene-2-carboxylic acid amide]",4 to 8 µg/mL,4 to 8 µg/mL,4 to 8 µg/mL,< 4 µg/mL,< 4 µg/mL,< 4 µg/mL,< 4 µg/mL,–,–,–

# Second part, led by results:
"MIC [1, 3]",MIC (E. coli ATCC 25922),MIC (E. coli MG 1655),MIC (P. acnes ATCC 11827),MIC (P. acnes ATCC 6919),MIC (S. aureus RN450),MIC [2],IC50 at 24 h (in vitro; African green monkey),IC50 at 24 h (in vitro; Chinese hamster),Compound,"MIC ([1]; ATCC29741, read-out: MIC B. thetaiotaomicron ATCC 29741)"
4 to 8 µg/mL,< 4 µg/mL,< 4 µg/mL,< 4 µg/mL,< 4 µg/mL,< 4 µg/mL,< 4 µg/mL,> 75 µg/mL,> 75 µg/mL,"CCO/N=C(/CCN(C)C)c1ccc(O)c2c1C[C@H]1C[C@H]3[C@@H](N(C)C)C(O)=C(C(N)=O)C(=O)[C@@]3(O)C(O)=C1C2=O [AN, (4R,4aS,5aR,12aS)-4-Dimethylamino-7-(3-dimethylamino-1-ethoxyimino-propyl)-3,10,12,12a-tetrahydroxy-1,11-dioxo-1,4,4a,5,5a,6,11,12a-octahydro-naphthacene-2-carboxylic acid amide]",–
< 4 µg/mL,< 4 µg/mL,< 4 µg/mL,< 4 µg/mL,< 4 µg/mL,< 4 µg/mL,< 4 µg/mL,35 to 75 µg/mL,< 35 µg/mL,CN(C)CC/C(=N\OC(C)(C)C)c1ccc(O)c2c1C[C@H]1C[C@H]3[C@H](N(C)C)C(O)=C(C(N)=O)C(=O)[C@@]3(O)C(O)=C1C2=O [O],–
4 to 8 µg/mL,4 to 8 µg/mL,> 8 µg/mL,< 4 µg/mL,< 4 µg/mL,< 4 µg/mL,< 4 µg/mL,< 35 µg/mL,< 35 µg/mL,"CN(C)[C@@H]1C(O)=C(C(N)=O)C(=O)[C@@]2(O)C(O)=C3C(=O)c4c(O)ccc(/C=N/n5cccc5)c4C[C@H]3C[C@@H]12 [AC, (4S,4aS,5aR,12aS)-4-Dimethylamino-3,10,12,12a-tetrahydroxy-1,11-dioxo-7-(pyrrol-1-yliminomethyl)-1,4,4a,5,5a,6,11,12a-octahydro-naphthacene-2-carboxylic acid amide]",–
< 4 µg/mL,< 4 µg/mL,< 4 µg/mL,< 4 µg/mL,< 4 µg/mL,< 4 µg/mL,< 4 µg/mL,< 35 µg/mL,< 35 µg/mL,CN(C)[C@@H]1C(O)=C(C(N)=O)C(=O)[C@@]2(O)C(O)=C3C(=O)c4c(O)ccc(-c5ncco5)c4C[C@H]3C[C@@H]12 [J],–
< 4 µg/mL,4 to 8 µg/mL,4 to 8 µg/mL,< 4 µg/mL,< 4 µg/mL,< 4 µg/mL,< 4 µg/mL,< 35 µg/mL,< 35 µg/mL,COC(=O)CONCc1ccc(O)c2c1C[C@H]1C[C@H]3[C@H](N(C)C)C(O)=C(C(N)=O)C(=O)[C@@]3(O)C(O)=C1C2=O [ED],–
4 to 8 µg/mL,< 4 µg/mL,4 to 8 µg/mL,< 4 µg/mL,< 4 µg/mL,< 4 µg/mL,< 4 µg/mL,> 75 µg/mL,> 75 µg/mL,CCO/N=C(\C)c1cc(N)c(O)c2c1C[C@H]1C[C@H]3[C@H](N(C)C)C(O)=C(C(N)=O)C(=O)[C@@]3(O)C(O)=C1C2=O [M],–
< 4 µg/mL,< 4 µg/mL,< 4 µg/mL,< 4 µg/mL,< 4 µg/mL,< 4 µg/mL,< 4 µg/mL,< 35 µg/mL,< 35 µg/mL,CN(C)[C@@H]1C(O)=C(C(N)=O)C(=O)[C@@]2(O)C(O)=C3C(=O)c4c(O)ccc(-c5cnoc5)c4C[C@H]3C[C@@H]12 [K],–
